Measured values as given in paper PMC10653858 (mBio, 2023).

What was measured:
SET domain = type: binding, L. pneumophila; details: pH 8
LegAS4 enzymes = type: binding, L. pneumophila strain Philadelphia
LegAS4 = type: binding, L. pneumophila strain Philadelphia; details: pH 7.5

Q: For C[S+](CC[C@H](N)C(=O)[O-])C[C@H]1O[C@@H](n2cnc3c(N)ncnc32)[C@H](O)[C@@H]1O (stereo partly drawn) [SAM], which “SAM binding of the SET domain alone, in words” value (SET domain) is on record?
A: The value was “greatly decreased SAM binding”.

Q: What about the “SAM binding of the different proteins, in words” value (LegAS4 enzymes) of the same molecule?
A: Its value is “same binding capacity to SAM”.

Q: For “ARTKQT-K(Biotin)-NH2 [H3 peptide (Ala1-Ala7)]”, which “Peptide binding to wild-type LegAS4, in words” value (LegAS4) is on record?
A: The value was “not binding the enzyme”.
